# Reference: patent US20240099298A1, “BIOINSECTICIDAL COMPOSITIONS CONTAINING MONOTERPENES AND METHODS OF USE THEREOF” (priority 2017, published 2024)
# How the values were obtained:
# [1] = tested on: Thrips, M. usitatus; experiment: Headspace fumigation toxicity of linalool mixed in peanut oil; type: in vivo, Megalurothrips usitatus; details: thrips exposed to headspace above the solution
# [2] = target: T1, recombinant gamma-aminobutyric acid receptor-associated protein (rGABARAP) (Frankliniella occidentalis, UniProt A0A6J1T1Q2); experiment: Isothermal titration calorimetry (ITC) binding to rGABARAP; details: 25° C., pH 7.4
# T1 sequence (A0A6J1T1Q2 1-118): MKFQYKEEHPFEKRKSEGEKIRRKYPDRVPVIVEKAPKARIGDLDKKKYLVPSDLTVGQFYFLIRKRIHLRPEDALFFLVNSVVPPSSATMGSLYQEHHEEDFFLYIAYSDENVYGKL
# Protocol: (§1) Preparation of recombinant GABARAP (rGABARAP) protein. RNA was extracted from F. occidentalis and cDNA was then synthesized. GABARAP (GenBank accession No. LOC113211372) was obtained after PCR amplification (Stafford-Banks, et al. (2014) Plos One 9:e94447).
# The isothermal titration thermal binding measurements were performed with an ITC-200 calorimeter (GE Healthcare, Boston, MA) at 25° C. in a buffer containing 50 mM Tris-HCl and 100 mM NaCl (pH 7.4). […] The MicroCal Origin 7.0 software system was used for data processing. The first run was a pre-run and was excluded from the final data. The amount of protein in the sample pool was constant. […] The experimental bimolecular interaction data from the 18 drops were used to calculate the dissociation constant. The dissociation constant […] was calculated as 1/K (Li, et al. (2018) RSC Advances 8:18952-18958).
# [3] = tested on: B. cucuribitae (melon fly); experiment: Median lethal time (LT50) test, melon fly; type: in vivo, Bactrocera cucuribitae
# Description: (§2) All treatments and controls were in triplicate.
# (§3) Toxicity of Monoterpenes as Fumigants. […] Therefore, to determine how fast the monoterpenes act as fumigants, it was necessary to determine their LT50 values for the target organisms.
# [4] = tested on: Musca domestica (Linnaeus) (housefly); details: adult housefly, exposed one hour, mortality in 24 hours
# Description: (§4) Median Lethal Concentration Tests. […] The species tested included Thrips (M. usitatus), spider mite (T. cinnabarinus), melon fly (B. cucuribitae), cockroach (B. lateralis), housefly (M. domestica), mosquito (A. aegypti), parasitic wasp (T. chilonis) and fruit fly (Drosophila melanogaster). After being exposed to the test chemicals for one hour, adult Thrips, spider mites, and roaches were transferred to another flask. In addition to fresh water, adult Thrips, spider mites, and roaches were then respectively fed with cowpea, fresh blade of eggplant, and peanut oil via filter. […] Mortality of melon fly was observed after three hours of exposure.
# [5] = tested on: Bactrocera cucuribitae (Coquillett) (melon fly); details: melon fly
# Description: as §4
# [6] = tested on: Aedes aegypti (Linnaeus) (mosquito); details: adult mosquito, exposed 30 minutes, mortality in 24 hours
# Description: as §4
# [7] = tested on: Tetranychus cinnabarinus (Boisduval) (spider mites); details: spider mites, exposed one hour
# Description: as §4
# [8] = tested on: Blatta lateralis (Walker) (cockroach); details: cockroach second instar nymphs, exposed one hour
# Description: as §4
# [9] = tested on: Musca domestica (housefly); experiment: Median knockdown concentration (KC50) test, housefly; type: in vivo; details: Musca domestica
# Description: as §2
# Knockdown Activity of Monoterpenes.
# [10] = tested on: Megalurothrips usitatus (Bagrall) (thrips); experiment: Median lethal concentration fumigation test, thrips; details: adult thrips, exposed one hour, mortality observed in 24 hours
# Description: as §4
# [11] = tested on: M. domestica (housefly); experiment: Median lethal time (LT50) test, housefly; type: in vivo, Musca domestica
# Description: as §2, §3
# [12] = tested on: H. picinus (Nitidulid beetle); experiment: Median lethal time (LT50) test, Nitidulid beetle; type: in vivo, Haptoncus picinus
# Description: as §2, §3
# [13] = target: T1, recombinant gamma-aminobutyric acid receptor-associated protein (rGABARAP); experiment: Microscale thermophoresis (MST) binding to rGABARAP; details: rGABARAP; read-out: Kd value, MST
# Description: as §1
# Interaction between ME and rGABARAP. A Nano Temper Monolith NT.115 MST system (Nano Temper, Munich, Germany) was used to assess the binding affinities between the target compounds and rGABARAP according to the published procedures (Zan, et al. (2020) Journal of Agricultural and Food Chemistry 68:6280-6285). Spinosyn A was used as a chemical positive control. Spinosyn A (≥1 nM) can trigger a change of the Cl^− current of insect neuron GABAAR, which is considered to be an insecticidal action mechanism of spinosyn A (Watson (2001) Pesticide Biochemistry and Physiology 71:20-28). Ovalbumin (OVA) (Sangon Biotech, Shanghai, China) is a control protein consisting of 385 amino acid residues. The interaction between OVA and ME was used as a protein control experiment (Huntington, et al. (1995) Protein Science 4:613-621).
structure (smiles),measurement,setting,value
"C=CC(C)(O)CCC=C(C)C (centres unmarked) [Linalool, 3,7-dimethylocta-1,6-dien-3-o1]",LC50 of linalool mixed in peanut oil,[1],4.7%
same,Kd,[2],6.89 µM
same,LT50 (fiducial limits),[3],2.05 h
same,LC50 (fiducial limits),[4],30.6 µg/mL
same,LC90 (fiducial limits),[4],176 µg/mL
same,LC50 (fiducial limits),[5],>243 µg/mL
same,LC90 (fiducial limits),[5],>243 µg/mL
same,LC50 (fiducial limits),[6],>243 µg/mL
same,LC90 (fiducial limits),[6],>243 µg/mL
same,LC50 (fiducial limits),[7],550 µg/mL
same,LC90 (fiducial limits),[7],4330 µg/mL
same,LC50 (fiducial limits),[8],345 µg/mL
same,LC90 (fiducial limits),[8],1700 µg/mL
same,KC50 (fiducial limits),[9]; 20 Minutes,>243 µg/mL
same,KC50 (fiducial limits),[9]; 30 Minutes,192 µg/mL
same,LC50 (fiducial limits),[10],2.50 µg/mL
same,LC90 (fiducial limits),[10],6.4 µg/mL
same,LT50 (fiducial limits),[11],1.28 h
same,LT50 (fiducial limits),[12],1.58 h
same,Kd,[13],12.3 µM
